Laboratory results from PMC12018048, “Intranasal kisspeptin administration rapidly stimulates gonadotropin release in humans” (eBioMedicine, 2025).
“And” between values parts separate entries of the source, which are not always exact repeats. Equal entries are not always repeated.

Tests used:
[1] = tested on: serum LH, FSH and testosterone; assay: Intranasal kisspeptin-54, reproductive hormone profiles in healthy men; format: in vivo, human; conditions: N = 12; for AUC of the change in serum LH / AUC of the change in serum testosterone / AUC of the change in serum FSH: 4 h sampling; for AUC of the change in serum LH / AUC of the change in serum testosterone / Max increase from baseline in serum testosterone / Maximum increase from baseline in serum FSH / Maximum increase from baseline in serum LH / AUC of the change in serum FSH: mean ± SEM; for Serum FSH over the sampling period, mean difference vs placebo / Serum LH over the sampling period, mean difference vs placebo: 4 h time profile
Method: This was a randomised, double-blinded, crossover, placebo-controlled clinical study (Fig. 1, Fig. 2, Fig. 3a). Participants were admitted to the Clinical Research Unit (Imperial College Healthcare NHS Trust) and completed five (in healthy men) or two (in healthy women and patients with HA) study visits. […] Study visits in healthy women were conducted in the follicular phase of the menstrual cycle (i.e., days 2–10 inclusive) to control for changes in reproductive hormones over the course of the cycle and were conducted across two different menstrual cycles to allow washout.
All studies commenced at 08:00 to control for circadian hormonal changes. Participants were instructed to abstain from alcohol, caffeine, and sexual activities from 22:00 preceding each study visit. On arrival, an intravenous cannula was inserted into one antecubital fossa, and blood was sampled at timepoints −30, −15, and 0 min, before intranasal administration of kisspeptin-54 or 0.9% saline (placebo). Following participant education (described below), healthy men self-administered the following 5 interventions under supervision in random order via the intranasal route: 3.2, 6.4, 12.8, and 25.6 nmol/kg of kisspeptin-54, or placebo. Healthy women and patients with HA attended for the same protocol comparing 12.8 nmol/kg of kisspeptin-54 and placebo in random order. After administration of kisspeptin-54 or placebo at timepoint 0 min, serum levels of LH, FSH, and testosterone (in men), or oestradiol and progesterone (in women) were measured every 15 min for 4 h. Heart rate, blood pressure, and the presence of adverse symptoms were recorded every 15 min.
Kisspeptin-54 or placebo was self-administered using nasal spray devices that delivered a single volume of 100 μL per actuation (SP270+ pump, 3959 actuator, 5 mL SGD U-Save glass bottles provided by Nemera, La Verpillière, France). The kisspeptin-54 nasal spray solution formulations were prepared by reconstituting kisspeptin-54 powder stored in sterile vials on the morning of each study visit to produce a solution containing the target dose according to body weight in 400 μL.
Participants were familiarised with the procedure of intranasal application and were provided with written administration instructions ahead of each study visit, as described in.[38] In addition, participants received a 5-min training session using a dummy nasal spray device before starting the study to ensure good technique, which all participants easily understood. Under instruction and supervision from the clinical team, participants primed the nasal sprays then self-administered a total of four sprays of kisspeptin-54 or placebo per visit (i.e., 4 × 100 μL), alternating between nostrils and leaving 60 s between sprays, to allow satisfactory dissipation and avoid solution running out of the nostrils. Nasal sprays containing kisspeptin or placebo were identical in appearance, volume, and administration technique.
Blood samples were collected to measure serum reproductive hormone levels at the timepoints depicted in Fig. 1, Fig. 2, Fig. 3a. Serum samples were stored at −20 °C until analysis. Serum LH, FSH, testosterone (in men), and oestradiol and progesterone (in women) were measured using automated chemiluminescent immunoassays (Abbott Diagnostics, Maidenhead, UK: LH catalogue # 2P40-25, FSH catalogue # 7K75-25, testosterone catalogue # 07K7320, oestradiol catalogue # 7K72-25, progesterone catalogue # 7K77-25). Reference ranges: LH in international units per litre (IU/L), 2–12 (men), 2–10 (follicular), 20–60 (mid-cycle), 4–14 (luteal); FSH in IU/L, 1.7–8 (men), 1.5–8.0 (follicular and luteal), 10–50 (mid-cycle); in men: testosterone in nanomoles per litre (nmol/L), 10–30; and in women: oestradiol in picomoles per litre (pmol/L), <300 (early follicular), 400–1500 (mid-cycle), 200–1000 (luteal) and progesterone in nmol/L, <5.0 (follicular), 3.5–67 (luteal). […]

[2] = Kisspeptin-54 powder particle size and shape analysis (Morphologi 4); format: physicochemical
Method: Particle size and shape analysis of the kisspeptin-54 powder was performed using a Morphologi 4 (Malvern Instruments, Worcestershire, UK). Particles were readily dispersed using the dispersion unit at low energy level. Bright field illumination was used for microscopic visualisation of the particles with the light intensity calibrated to 70%. The samples were scanned using the 20× objective lens over a scan area of 4.5 mm by 4.5 mm with a trash size of 10 pixels.

[3] = Stability of kisspeptin-54 solutions for nasal delivery; format: physicochemical; conditions: 2 M HCL or phosphate buffer at 60 °C for 72 h, HPLC-UV
[4] = intranasal 3.2 nmol/kg vs placebo
[5] = intranasal 6.4 nmol/kg vs placebo
[6] = intranasal 6.4 nmol/kg, two-way ANOVA
[7] = intranasal 12.8 nmol/kg vs placebo
[8] = intranasal 12.8 nmol/kg, two-way ANOVA
[9] = intranasal 25.6 nmol/kg vs placebo

## Kisspeptin-54
[1]; [4]
  FSH AUC, mean difference vs placebo: 47.2 h·IU/L
  FSH maximum increase, mean difference vs placebo: 0.2 IU/L
  LH AUC, mean difference vs placebo: 197.6 h·IU/L
  LH maximum increase, mean difference vs placebo: 1.1 IU/L
  Testosterone AUC, mean difference vs placebo: 457.4 nmol·h/L
  Testosterone max increase, mean difference vs placebo: 1.5 nmol/L
[1]; intranasal 3.2 nmol/kg
  AUC of the change in serum LH: 172.2 ± 64.2 h·IU/L
  AUC of the change in serum testosterone: 273.6 ± 158.7 nmol·h/L
  Max increase from baseline in serum testosterone: 4.0 ± 1.0 nmol/L
  Maximum increase from baseline in serum FSH: 0.3 ± 0.1 IU/L
  Maximum increase from baseline in serum LH: 2.5 ± 0.3 IU/L
[1]; [5]
  FSH AUC, mean difference vs placebo: 97.6 h·IU/L
  FSH maximum increase, mean difference vs placebo: 0.4 IU/L
  LH AUC, mean difference vs placebo: 325.5 h·IU/L
  LH maximum increase, mean difference vs placebo: 1.7 IU/L
  Testosterone AUC, mean difference vs placebo: 329.7 nmol·h/L
  Testosterone max increase, mean difference vs placebo: 0.9 nmol/L
[1]; intranasal 6.4 nmol/kg
  AUC of the change in serum FSH: 37.3 ± 16.2 h·IU/L
  AUC of the change in serum LH: 300.2 ± 79.2 h·IU/L
  AUC of the change in serum testosterone: 145.9 ± 158.5 nmol·h/L
  Max increase from baseline in serum testosterone: 3.4 ± 0.8 nmol/L
  Maximum increase from baseline in serum FSH: 0.4 ± 0.1 IU/L
[1]; [6]
  Serum FSH over the sampling period, mean difference vs placebo: 0.4 IU/L
  Serum LH over the sampling period, mean difference vs placebo: 1.3 IU/L
[1]; [7]
  FSH AUC, mean difference vs placebo: 156.6 h·IU/L
  FSH maximum increase, mean difference vs placebo: 0.7 IU/L
  LH AUC, mean difference vs placebo: 621.1 h·IU/L
  LH maximum increase, mean difference vs placebo: 3.1 IU/L
  Testosterone AUC, mean difference vs placebo: 654.3 nmol·h/L
  Testosterone max increase, mean difference vs placebo: 2.4 nmol/L
[1]; intranasal 12.8 nmol/kg
  AUC of the change in serum FSH: 96.3 ± 23.2 h·IU/L
  AUC of the change in serum LH: 595.7 ± 98.3 h·IU/L
  AUC of the change in serum testosterone: 470.4 ± 144.0 nmol·h/L
  Time of maximal increase in serum testosterone: 150 min
  Max increase from baseline in serum testosterone: 4.9 ± 0.7 nmol/L
  Maximum increase from baseline in serum FSH: 0.7 ± 0.2 IU/L
  Maximum increase from baseline in serum LH: 4.45 IU/L and 4.4 ± 0.6 IU/L
[1]; [8]
  Serum FSH over the sampling period, mean difference vs placebo: 0.6 IU/L
  Serum LH over the sampling period, mean difference vs placebo: 2.5 IU/L
  Serum testosterone, mean difference vs placebo at peak levels from 120 min: 1.91 nmol/L
[1]; [9]
  FSH AUC, mean difference vs placebo: 147.6 h·IU/L
  FSH maximum increase, mean difference vs placebo: 0.7 IU/L
  LH AUC, mean difference vs placebo: 574.4 h·IU/L
  LH maximum increase, mean difference vs placebo: 2.9 IU/L
  Testosterone AUC, mean difference vs placebo: 630.3 nmol·h/L
  Testosterone max increase, mean difference vs placebo: 3.1 nmol/L
[1]; intranasal 25.6 nmol/kg
  AUC of the change in serum FSH: 87.3 ± 66.2 h·IU/L
  AUC of the change in serum LH: 549.0 ± 108.6 h·IU/L
  AUC of the change in serum testosterone: 446.5 ± 287.4 nmol·h/L
  Max increase from baseline in serum testosterone: 5.6 ± 1.6 nmol/L
  Maximum increase from baseline in serum FSH: 0.8 ± 0.3 IU/L
  Maximum increase from baseline in serum LH: 4.3 ± 0.6 IU/L
[1]; intranasal 25.6 nmol/kg, two-way ANOVA
  Serum LH over the sampling period, mean difference vs placebo: 2.3 IU/L
[1]; intranasal 3.2-25.6 nmol/kg
  Time of peak stimulation of serum LH after administration: 30 to 45 min
[2]; Morphologi 4
  Particle shape: irregular-shaped particles
  Proportion of particles in the 20–50 μm range: over 40%
[2]; Morphologi 4, N = 55,421 particles
  Circular equivalent diameter range of powder particles: 0.5–113 μm
[2]; Morphologi 4 static automated imaging
  Powder particle size range (particles largely within): 10–110 μm
[3]
  Forced degradation (HPLC assay specificity): loss or reduction of the kisspeptin peak
